These results are taken from ChEMBL document CHEMBL6109137, “Design, Synthesis, Evaluation, and SAR of 5-Phenylisoindoline Derivatives, a Potent Class of Small-Molecule Inhibitors Targeting the Programmed Cell Death-1/Programmed Cell Death-Ligand 1 (PD-1/PD-L1) Interaction” (J Med Chem, 2025).

Series [1] in a line: Toxicity in C57BL/6J mouse implanted with mouse MC38 cells assessed as animal mortality at 5 to 20 mg/kg, ip qd for 13 days. The series is classed as organism-based. To be noted: in vivo, 312 h, dose 5-20 mg/kg, time 13 day.
Series [2] is described as follows: Cytotoxicity against human BEAS-2B cells measured after 48 hrs by MTT assay. It is filed as toxicity, cell-based.
Series [3] in a line: Cytotoxicity against human HaCaT cells measured after 48 hrs by MTT assay. The series is classed as toxicity, cell-based. On the technique in general: Tetrazolium dyes change colour on reduction, which living cells bring about.
Series [4] in a line: Toxicity in C57BL/6J mouse implanted with mouse MC38 cells assessed as change in serum ALT level at 5 to 20 mg/kg, ip qd for 13 days. The series is classed as organism-based. The conditions noted are these: in vivo, 312 h, dose 5-20 mg/kg, time 13 day.
Another series deals with MC-38. Briefly: Antitumor activity against mouse MC38 cells implanted in C57BL/6J mouse assessed as increase in granzyme B level at 5 to 20 mg/kg, ip qd for 13 days by IHC analysis. It is filed as functional, organism-based. To be noted: dose 5-20 mg/kg, time 13.0 day.
Series [5] is described as follows: Toxicity in C57BL/6J mouse implanted with mouse MC38 cells assessed as animal mortality at 40 to 160 mg/kg, IG qd for 7 days. It is filed as organism-based. The conditions noted are these: in vivo, po, 168 h, dose 40-160 mg/kg, time 7 day.
Series [6] is described as follows: Toxicity in C57BL/6J mouse implanted with mouse MC38 cells assessed as kidney weight ratio at 40 to 160 mg/kg, IG qd for 7 days. It is filed as organism-based. To be noted: in vivo, po, 168 h, dose 40-160 mg/kg, time 7 day.
The nature of series [7]: Toxicity in C57BL/6J mouse implanted with mouse MC38 cells assessed as change in ALT level at 40 to 160 mg/kg, IG qd for 7 days. It is filed as organism-based. To be noted: in vivo, po, 168 h, dose 40-160 mg/kg, time 7 day.
A short description of series [8]: Toxicity in C57BL/6J mouse implanted with mouse MC38 cells assessed as change in neutrophils count at 40 to 160 mg/kg, IG qd for 7 days. The conditions noted are these: in vivo, po, 168 h, dose 40-160 mg/kg, time 7 day. The series is classed as organism-based.
The nature of series [9]: Toxicity in C57BL/6J mouse implanted with mouse MC38 cells assessed as change in MPV count at 40 to 160 mg/kg, IG qd for 7 days. It is filed as organism-based. The conditions noted are these: in vivo, po, 168 h, dose 40-160 mg/kg, time 7 day.

Active and inactive are the calls of the source. The calls are words filed in the database; no cut-off is given here.

Take `C[C@H](N)C(=O)N1Cc2ccc(-c3cccc(-c4ccc5c(c4)OCCO5)c3Cl)cc2C1.Cl`: the Activity entry in series [1], in series [4], in [5], in series [6], in series [7] and in series [8] was “Non-toxic” in each case. In addition, the Activity entry in series [9] is on record as “Non-toxic”. The IC50 (in general, the concentration that inhibits the measured activity by half) at 48 h is greater than 10 µM in [2] and greater than 100 µM in [3]. Besides, the outcome with MC-38 was Active.
